Results reported in patent publication US20250073165A1, “OLANZAPINE, COMPOSITIONS THEREOF AND METHODS OF USE THEREOF” (Teva Pharmaceuticals International GmbH, priority 2022, published 2025).

Tests used:
[1] = Particle size distribution (PSD) by laser diffraction, Malvern Mastersizer 2000; format: physicochemical
Method: (§1) For the purposes herein, particle size distribution (PSD) is determined as the percent volume, i.e. D(90) and D(3,2) and was measured by laser diffraction using a Malvern Mastersizer 2000 equipped with a Hydro 2000 S dispersion unit.
(§2) The measurements were performed in saturated water dispersion medium (refractive index=[…] (general purpose)). The water was saturated with olanzapine to prevent dissolution of the sample while measuring. Dispersion medium was prepared by adding about 3 gm olanzapine to 1 liter water, sonicating in an ultrasound bath for 30 min and filtering (0.22-0.45 μm). The samples were added as concentrated suspension under stirring until an obscuration rate of 10-20% was reached. The results were values arising from ten measurement cycles with a recirculation time (after sonification) of 30 sec.
(§3) Sample preparation: Samples were prepared as concentrated suspensions. About 50-100 mg of the olanzapine sample was added with a spatula to a small sized glass beaker and several drops of saturated water dispersion medium was added. A paste was obtained by mild mixing, and an additional quantity (1 ml) of saturated water dispersion medium was added in order to obtain a concentrated homogeneous suspension.

[2] = Bulk/tapped density, Ph. Eur. 2.9.34 Method 1, ERWEKA SVM 122; format: physicochemical; conditions: Table 1
Method: Bulk density/tapped density were determined by European Pharmacopoeia 2.9.34. Method 1 (https://www.drugfuture.com/Pharmacopoeia/EP7/DATA/20934E.PDF; PDF downloaded Nov. 14, 2021).
The bulk and tapped densities were determined using the Tapped Density Tester SVM 122 from ERWEKA, equipped with a 100 mL glass cylinder. Approximately 30 g of the powder was carefully poured into the 100 mL measuring cylinder with a funnel. Bulk density was calculated by dividing the amount of powder (in gram) by the measured volume (mL). The tapped density was then determined as follows:
If the difference between V500 and V1250 was bigger than 2 mL, taps were repeated: i.e. tapped another 1250× and repeated until difference was below 2 mL. • Bulk density=sample weight/volume before tapping. • Tapped density=weight/volume after tapping. • Calculation: […]

[3] = PSD of bulk API compared to PSD of API in vial after dry heat sterilization; format: physicochemical; conditions: for D(3,2) / D(90): Table 3, bulk API or API in vial after dry heat sterilization 150-160° C., two hours, per sample name
Method: as §1, §2, §3
Closed and crimped vials filled with API were terminally sterilized at 150-160° C. using dry heat for two hours in dry heat oven SP-470 by Kambič (Slovenia). Additional methods of terminal sterilization include radiation including for example, gamma radiation, X-ray, electron beam and the like with similar results. Alternatively, the API may be prepared aseptically
The manufacturing process for the final drug product includes a terminal sterilization step, and specifically the quality of the bulk API should not be affected by sterilization. Therefore, after the dry heat sterilization, samples of API in vials filled with two batches (with low PSD) were analyzed for PSD and compared to starting API material.

[4] = Flow function by FT4 Powder Rheometer, shear test 9 kPa; format: physicochemical; conditions: 9 kPa shear test, 1 ml cell
Method: The flow function (FF) was determined by using FT4 Powder Rheometer, Freeman FT4 instrument, and standard Freeman shear test −9 kPa (using small cell 1 ml), according to the procedure below: • Compact to 9 kPa for 60 s • Pre shear hold 7 kPa for 16 s • Shear test at 7 kPa (Shear at 18°/min for 10°, auto detected peak torque yes) • Pre shear hold 6 kPa for 16 s • Shear test at 6 kPa (Shear at 18°/min for 10°, auto detected peak torque yes) • Pre shear hold 5 kPa for 16 s • Shear test at 5 kPa (Shear at 18°/min for 10°, auto detected peak torque yes) • Pre shear hold 4 kPa for 16 s • Shear test at 4 kPa (Shear at 18°/min for 10°, auto detected peak torque yes) • Pre shear hold 3 kPa for 16 s • Shear test at 3 kPa (Shear at 18°/min for 10°, auto detected peak torque yes)

[5] = background statement; cited from earlier work
[6] = Table 4, listed as Olanzapine M1-010
[7] = Table 4, listed as Olanzapine M6-020
[8] = Table 4, listed as Olanzapine M7-121
[9] = Table 4, listed as Olanzapine S1-220
[10] = Table 4, listed as Olanzapine S1-920
[11] = Table 4, listed as Olanzapine S2-920
[12] = Table 4, listed as Olanzapine S3-020
[13] = Table 4, listed as Olanzapine S3-221

SMILES | D(3,2) ([1]; Table 1, bulk API batch) [μm] | D(90) ([1]; Table 1, bulk API batch) [μm] | TD (tapped density) [2] [g/mL] | D(3,2) [3] [μm] | D(90) [3] [μm] | Flow function [4] | other results
Cc1cc2c(s1)Nc1ccccc1N=C2N1CCN(C)CC1 [Batch M1-010, 2-methyl-4-(4-methyl-1-piperazinyl)-10H-thieno[2,3-b][1,5]benzodiazepine] | 4.2 | 13 | 0.37 | 4.7 | 14 | 1.4 | D(90) [1, 6]: 14 μm; D(100) [1, 6]: 42 μm
Cc1cc2c(s1)Nc1ccccc1N=C2N1CCN(C)CC1 [Batch M2-121, 2-methyl-4-(4-methyl-1-piperazinyl)-10H-thieno[2,3-b][1,5]benzodiazepine] | 6.4 | 30 | 0.39 | 7.5 | 40 | 1.5 | –
Cc1cc2c(s1)Nc1ccccc1N=C2N1CCN(C)CC1 [Batch M6-020, 2-methyl-4-(4-methyl-1-piperazinyl)-10H-thieno[2,3-b][1,5]benzodiazepine] | 6.6 | 24 | 0.41 | 6.5 | 24 | 2.0 | D(90) [1, 7]: 24 μm; D(100) [1, 7]: 205 μm
Cc1cc2c(s1)Nc1ccccc1N=C2N1CCN(C)CC1 [Batch M7-121, 2-methyl-4-(4-methyl-1-piperazinyl)-10H-thieno[2,3-b][1,5]benzodiazepine] | 8.3 | 42 | 0.50 | – | – | 2.1 | D(90) [1, 8]: 40 μm; D(100) [1, 8]: 205 μm
Cc1cc2c(s1)Nc1ccccc1N=C2N1CCN(C)CC1 [Batch S1-220, 2-methyl-4-(4-methyl-1-piperazinyl)-10H-thieno[2,3-b][1,5]benzodiazepine] | 6.1 | 26 | 0.39 | 5.8 | 29 | 1.5 | D(90) [1, 9]: 29 μm; D(100) [1, 9]: 142 μm
Cc1cc2c(s1)Nc1ccccc1N=C2N1CCN(C)CC1 [Batch S1-920, 2-methyl-4-(4-methyl-1-piperazinyl)-10H-thieno[2,3-b][1,5]benzodiazepine] | 4.1 | 11 | 0.29 | 3.9 | 11 | 1.2 | D(90) [1, 10]: 11 μm; D(100) [1, 10]: 21 μm
Cc1cc2c(s1)Nc1ccccc1N=C2N1CCN(C)CC1 [Batch S2-920, 2-methyl-4-(4-methyl-1-piperazinyl)-10H-thieno[2,3-b][1,5]benzodiazepine] | 7.6 | 38 | 0.45 | – | – | 2.0 | D(90) [1, 11]: 38 μm; D(100) [1, 11]: 136 μm
Cc1cc2c(s1)Nc1ccccc1N=C2N1CCN(C)CC1 [Batch S3-020, 2-methyl-4-(4-methyl-1-piperazinyl)-10H-thieno[2,3-b][1,5]benzodiazepine] | 5.4 | 17 | 0.28 | 5.2 | 16 | 1.3 | D(90) [1, 12]: 16 μm; D(100) [1, 12]: 90 μm; PSD curves before and after sterilization ([3]; FIG. 4B): highly similar
Cc1cc2c(s1)Nc1ccccc1N=C2N1CCN(C)CC1 [Batch S3-221, 2-methyl-4-(4-methyl-1-piperazinyl)-10H-thieno[2,3-b][1,5]benzodiazepine] | 6.4 | 26 | 0.40 | – | – | 1.8 | D(90) [1, 13]: 24 μm; D(100) [1, 13]: 61 μm
Cc1cc2c(s1)Nc1ccccc1N=C2N1CCN(C)CC1 [Olanzapine S2-121, 2-methyl-4-(4-methyl-1-piperazinyl)-10H-thieno[2,3-b][1,5]benzodiazepine] | – | – | – | – | – | – | D(90) ([1]; Table 4): 27 μm; D(100) ([1]; Table 4): 196 μm
Cc1cc2c(s1)Nc1ccccc1N=C2N1CCN(C)CC1 [Olanzapine S4-221, 2-methyl-4-(4-methyl-1-piperazinyl)-10H-thieno[2,3-b][1,5]benzodiazepine] | – | – | – | – | – | – | D(90) ([1]; Table 4): 26 μm; D(100) ([1]; Table 4): 110 μm
Cc1cc2c(s1)Nc1ccccc1N=C2N1CCN(C)CC1 [Olanzapine, 2-methyl-4-(4-methyl-1-piperazinyl)-10H-thieno[2,3-b][1,5]benzodiazepine] | – | – | – | – | – | – | Water solubility [5]: poor
